Patent USRE48267E1, “Variants of C-type natriuretic peptide” (priority 2009, dated 2020)
Where a SMILES comes first, the peptide text is derived from it. Bridges are numbered along the chain shown (N, C = ends). The star is where a group is joined. MeO(CH2CH2O)23CH2CH2CO = COCCOCCOCCOCCOCCOCCOCCOCCOCCOCCOCCOCCOCCOCCOCCOCCOCCOCCOCCOCCOCCOCCOCCOCCC(=O)*

What was measured:
[1] = system: wild-type mouse femurs and tibias; test: mouse organ culture model of endochondral bone growth, wild-type bones; settings: for longitudinal growth of wild-type mouse femur ex vivo: 8 days
Protocol: To determine the efficacy of CNP variants in stimulating longitudinal bone growth, CNP variants were tested in a mouse organ culture model of endochondral bone growth in wild-type mice and transgenic mice having a G380R mutation in the human FGFR-3 gene (FGFR3^wt/Ach heterozygote) which represent a mouse model of mild achondroplasia. In brief, the pharmacological activity of wild-type CNP22 and CNP variants was compared in an organ culture model of embryonic or neonatal mouse tibiae, isolated from wild-type and FGFR3^wt/Ach littermates. Overall bone growth and histological changes within the growth plate were assessed. Conditioned culture medium is also assessed for biomarkers of intracellular signaling (cGMP), cartilage metabolism (type II collagen, other collagens, aggrecan chondroitin sulfate), bone metabolism (bone alkaline phosphatase, osteocalcin, type I collagen [C-telopeptide, N-telopeptide]), and inflammation (interleukin-1, interleukin 6, interleukin-11).
The efficacy of wtCNP22, CNP37 and PEO24-[…]22(K4R) (SEQ ID NO: 36) in stimulating longitudinal femoral growth was evaluated in the mouse organ culture model. For these experiments femora were isolated from 2-3 day old wild-type mice and cultured in alphaMEM supplemented with 0.2% BSA, 0.5 mM L-glutamine, 40 units penicillin/mL and 40 ug streptomycin/mL, for 8 days in the presence of vehicle, CNP22 or CNP variants. The treatment commenced at day 0 and was repeated every two days thereafter, as the medium was changed. Bones were measured prior to treatment and every two days thereafter, using a dissection microscope fitted with a 1 cm eye-piece reticule. Conditioned medium was used for biomarker analysis. At day 8 bones were fixed in 4% paraformaldehyde for 24 hr, decalcified in 5% formic acid for 24 hrs, dehydrated and embedded in paraffin. Bones were sectioned at 5 um (microns), which were then deparaffinized, rehydrated, and stained with Alcian Blue for 30 min (pH 2.5; MasterTech). Alcian Blue stains cartilage blue. Stained sections were visualized and photographed by brightfield microscopy. The thickness of the hypertrophic region of the growth plate cartilage was determined by image analysis.
In addition to the distribution of CNP variants in the bone growth plate, the ex vivo effects of CNP37, CNP22 and vehicle on cells in the FGFR3^ach and wild-type growth plate, e.g., hypertrophic cell size and cellularity of proliferating zone, were also evaluated. Bone samples were prepared, including Alcian Blue staining, as described above. Images of the entire proximal growth plate were taken at 4× magnitude. The growth plate is divided into three zones, starting from the epiphyseal side of cartilage: the resting zone (individual small chondrocytes), proliferating zone (columns of stacked chondrocytes parallel to the long axis of the bone), and hypertrophic zone (large chondrocytes and thin septa between the chondrocytes). In these regions, measurements were made by ImageJ software, including the number of proliferating chondrocytes per column and the density of hypertrophic chondrocytes. […] The cell size of hypertrophic chondrocytes was calculated by 1 over determined cell density. […]
Femurs and tibias were isolated from wild-type and FGFR3^ach mice as described above. […] On the eighth day, media was collected and analyzed for the biomarkers cGMP (cyclic guanosine 3′, 5′ cyclic monophosphate) and fragments of cleaved collagen type II, a cartilage-specific marker for cartilage turnover. […]

FGFR3^ach mice = test: bone growth biomarkers in FGFR3^ach mice; type: in vivo, mouse; settings: 200 nmol/kg s.c. daily, Day 36
Protocol: Plasma and serum were collected during the study. Harvested plasma was stored with 10× protease inhibitor at −80° C. until analysis. cGMP levels were measured 15 minutes post-injection on Day 36 from K2-ETDA plasma collection tubes. Fragments of cleaved collagen type II (cartilage-associated biomarkers), osteocalcin (bone-associated biomarker), and IgG (relating to immunogenicity) were measured from terminal bleed serum at the end of the study (Day 37). cGMP was measured using a commercially available ELISA kit (Cayman Chemical Co., Cat. No. 581021.1), cleaved collagen type II (Cartilaps) was measured using a commercially available kit from Immunodiagnostic Systems (Cat. No. 3CAL4000), and osteocalcin was measured using a commercially available kit from Biomedical Technologies Inc. (Stoughton, Mass.).

Compound: CC[C@H](C)[C@@H]1NC(=O)[C@H](CCCNC(=N)N)NC(=O)[C@H](CC(=O)O)NC(=O)[C@H](CC(C)C)NC(=O)[C@H](CCCCN)NC(=O)[C@H](CC(C)C)NC(=O)CNC(=O)[C@H](Cc2ccccc2)NC(=O)[C@@H](NC(=O)CNC(=O)[C@H](CCCNC(=N)N)NC(=O)[C@H](CO)NC(=O)[C@H](CC(C)C)NC(=O)CNC(=O)[C@H](CCCNC(=N)N)NC(=O)[C@H](CCCNC(=N)N)NC(=O)[C@H](CC(N)=O)NC(=O)[C@H](C)NC(=O)CNC(=O)CCOCCOCCOCCOCCOCCOCCOCCOCCOCCOCCOCCOCCOCCOCCOCCOCCOCCOCCOCCOCCOCCOCCOCCOC)CSSC[C@@H](C(=O)O)NC(=O)CNC(=O)[C@H](CC(C)C)NC(=O)CNC(=O)[C@H](CO)NC(=O)[C@H](CCSC)NC(=O)[C@H](CO)NC(=O)CNC1=O [PEO24-GANRR-CNP22(K4R)] ({MeO(CH2CH2O)23CH2CH2CO}-GANRRGLSRGCFGLKLDRIGSMSGLGC-OH; disulfide 11-27)
- cGMP levels in conditioned media ([1]; ex-planted wild-type mouse femurs and tibias, day 8): large increase (p<0.01)
- longitudinal growth of wild-type mouse tibia ex vivo ([1]; treated every two days): increased the longitudinal growth of the tibia compared to vehicle or CNP22
- longitudinal growth of wild-type mouse femur ex vivo ([1]; treated every two days): the most effective
- longitudinal growth of wild-type mouse femur ex vivo ([1]; treated every two days, listed as PE024-GANRR-CNP22(K4R)): stimulated the growth of wild-type mouse femur
- levels of cleaved collagen type II in conditioned media ([1]; wild-type mouse femurs): increased
- cGMP plasma levels 15 minutes post-injection, compared to vehicle (FGFR3^ach mice): increase
